Experimental findings from patent US11117947B2, “Double-acylated GLP-1 derivatives” (Novo Nordisk A/S, priority 2011, dated 2021) are described below.

Like-named read-outs stand apart in the source and are kept apart here. Numbered stars: 1 amine (or outer) side, 2 acyl side, 3 side chain; on linkers, the order of the positions; unused ones are H or OH. Side chains are listed from the residue outwards. Peptide text beside a SMILES is read from it. * marks the point of attachment. Decanoyl(10-(4-HOOC-PhO)) = O=C(O)c1ccc(OCCCCCCCCCC(=O)*)cc1; γGlu = O=C(O)[C@H](CCC(=O)[*:2])N[*:1]; C14 diacid = O=C(O)CCCCCCCCCCCCC(=O)*; AEEA = NCCOCCOCC(=O)O

The assay deals with T1, human GLP-1 receptor (Homo sapiens, UniProt P43220).
T1 construct: expressed in transfected cells; membranes
T1 sequence (P43220 24-463): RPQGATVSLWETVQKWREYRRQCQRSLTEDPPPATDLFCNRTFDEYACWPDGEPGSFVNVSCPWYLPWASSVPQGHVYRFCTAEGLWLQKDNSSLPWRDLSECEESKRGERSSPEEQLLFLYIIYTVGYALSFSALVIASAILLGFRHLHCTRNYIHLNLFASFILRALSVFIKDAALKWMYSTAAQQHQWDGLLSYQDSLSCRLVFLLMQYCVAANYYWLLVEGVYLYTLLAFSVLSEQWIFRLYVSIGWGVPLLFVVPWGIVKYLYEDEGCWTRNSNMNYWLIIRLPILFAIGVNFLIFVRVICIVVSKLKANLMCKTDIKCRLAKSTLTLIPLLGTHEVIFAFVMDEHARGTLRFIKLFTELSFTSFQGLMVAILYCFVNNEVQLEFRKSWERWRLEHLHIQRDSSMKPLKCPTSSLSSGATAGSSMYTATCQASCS
In words: GLP-1 receptor binding: displacement of 125I-GLP-1 (SPA) at low and high albumin. On the procedure: The purpose of this experiment is to investigate the binding to the GLP-1 receptor of the GLP-1 derivatives, and how the binding is potentially influenced by the presence of albumin. This is done in an in vitro experiment as described below.
In order to test the binding of the derivatives to albumin, the assay was performed with a low concentration of albumin (0.001%—corresponding to the residual amount thereof in the tracer), as well as with a high concentration of albumin (2.0% added). A shift in the binding affinity, IC50, is an indication that the peptide in question binds to albumin, and thereby a prediction of a potential protracted pharmacokinetic profile of the peptide in question in animal models.
Species (in vitro): Hamster
Biological End Point: Receptor Binding
A stable transfected cell line and a high expressing clone were selected for screening. The cells were grown at 5% CO2 in DMEM, 10% FCS, 1% Pen/Strep (Penicillin/Streptomycin) and 1.0 mg/ml of the selection marker G418.
The cells (approx. 80% confluence) were washed twice in PBS and harvested with Versene (aqueous solution of the tetrasodium salt of ethylenediaminetetraacetic acid), following which they were separated by centrifugation at 1000 rpm for 5 min. The cells/cell pellet must be kept on ice to the extent possible in the subsequent steps. The cell pellet was homogenised with Ultrathurrax for 20-30 seconds in a suitable amount of Buffer 1 (depending on the amount of cells, but e.g. 10 ml). The homogenate was centrifuged at 20000 rpm for 15 minutes. The pellet was resuspended (homogenised) in 10 ml Buffer 2 and re-centrifuged. This step was repeated once more. The resulting pellet was resuspended in Buffer 2, and the protein concentration was determined. The membranes were stored at minus 80° C.
Buffer 1: 20 mM Na-HEPES+10 mM EDTA, pH 7.4
Buffer 2: 20 mM Na-HEPES+0.1 mM EDTA, pH 7.4
Test compounds, membranes, SPA-particles and [^125I]-GLP-1(7-36)NH2 were diluted in assay buffer. 50 ul (micro liter) HSA (“high albumin” experiment containing 2% HSA), or buffer (“low albumin” experiment containing 0.001% HSA), was added to Optiplate, and 25 ul of test compounds were added. 5-10 ug membrane protein/sample was added (50 ul) corresponding to 0.1-0.2 mg protein/ml (to be preferably optimised for each membrane preparation). SPA-particles (Wheatgerm agglutinin SPA beads, Perkin Elmer, #RPNQ0001) were added in an amount of 0.5 mg/well (50 ul). The incubation was started with [^125I]-GLP-1]-(7-36)NH2 (final concentration 0.06 nM corresponding to 49.880 DPM, 25 ul). The plates were sealed with PlateSealer and incubated for 120 minutes at 30° C. while shaking. The plates were centrifuged (1500 rpm, 10 min) and counted in Topcounter.

In the case of `CC[C@H](C)[C@H](NC(=O)[C@H](Cc1ccccc1)NC(=O)[C@H](CCCCNC(=O)COCCOCCNC(=O)COCCOCCNC(=O)CC[C@H](NC(=O)CCCCCCCCCOc1ccc(C(=O)O)cc1)C(=O)O)NC(=O)[C@H](CCCNC(=N)N)NC(=O)[C@H](C)NC(=O)[C@H](C)NC(=O)[C@H](CCC(N)=O)NC(=O)[C@H](CCC(=O)O)NC(=O)[C@H](CCC(=O)O)NC(=O)[C@H](CC(C)C)NC(=O)[C@H](Cc1ccc(O)cc1)NC(=O)[C@H](CO)NC(=O)[C@H](CO)NC(=O)[C@@H](NC(=O)[C@H](CC(=O)O)NC(=O)[C@H](CO)NC(=O)[C@@H](NC(=O)[C@H](Cc1ccccc1)NC(=O)[C@@H](NC(=O)CNC(=O)[C@H](CCC(=O)O)NC(=O)[C@H](C)NC(=O)[C@@H](N)Cc1c[nH]cn1)[C@@H](C)O)[C@@H](C)O)C(C)C)C(=O)N[C@@H](C)C(=O)N[C@@H](Cc1c[nH]c2ccccc12)C(=O)N[C@@H](CC(C)C)C(=O)N[C@H](C(=O)N[C@@H](CCCNC(=N)N)C(=O)NCC(=O)N[C@@H](CCCNC(=N)N)C(=O)N[C@@H](CCCCNC(=O)COCCOCCNC(=O)COCCOCCNC(=O)CC[C@H](NC(=O)CCCCCCCCCOc1ccc(C(=O)O)cc1)C(=O)O)C(=O)O)C(C)C` [Example 1, N^ε27-[2-[2-[2-[[2-[2-[2-[[(4S)-4-carboxy-4-[10-(4-carboxyphenoxy)decanoylamino]butanoyl]amino]ethoxy]ethoxy]acetyl]amino]ethoxy]ethoxy]acetyl], N^ε37-[2-[2-[2-[[2-[2-[2-[[(4S)-4-carboxy-4-[10-(4-carboxyphenoxy)decanoylamino]butanoyl]amino]ethoxy]ethoxy]acetyl]amino]ethoxy]ethoxy]acetyl]-[Glu^22,Arg^26,Lys^27,Arg^34,Lys^37]-GLP-1-(7-37)-peptide] (H-HAEGTFTSDVSSYLEEQAARK([AEEA-AEEA-γGlu-Decanoyl(10-(4-HOOC-PhO))])FIAWLVRGRK([AEEA-AEEA-γGlu-Decanoyl(10-(4-HOOC-PhO))])-OH; N-terminus and C-terminus assumed), the IC50 (low albumin, 0.001% HSA, read-out: IC50/nM (low HSA)) was determined as 0.19 nM.

With `CC[C@H](C)[C@H](NC(=O)[C@H](Cc1ccccc1)NC(=O)[C@H](CCCCNC(=O)COCCOCCNC(=O)COCCOCCNC(=O)CC[C@H](NC(=O)CCCCCCCCCCCCC(=O)O)C(=O)O)NC(=O)[C@H](CCCNC(=N)N)NC(=O)[C@@H](NC(=O)[C@H](CCCCNC(=O)COCCOCCNC(=O)COCCOCCNC(=O)CC[C@H](NC(=O)CCCCCCCCCCCCC(=O)O)C(=O)O)NC(=O)[C@H](CCC(N)=O)NC(=O)[C@H](CCC(=O)O)NC(=O)[C@H](CCC(=O)O)NC(=O)[C@H](CC(C)C)NC(=O)[C@H](Cc1ccc(O)cc1)NC(=O)[C@H](CO)NC(=O)[C@H](CO)NC(=O)[C@@H](NC(=O)[C@H](CC(=O)O)NC(=O)[C@H](CO)NC(=O)[C@@H](NC(=O)[C@H](Cc1ccccc1)NC(=O)[C@@H](NC(=O)CNC(=O)[C@H](CCC(=O)O)NC(=O)[C@H](C)NC(=O)[C@@H](N)Cc1c[nH]cn1)[C@@H](C)O)[C@@H](C)O)C(C)C)C(C)C)C(=O)N[C@@H](C)C(=O)N[C@@H](Cc1c[nH]c2ccccc12)C(=O)N[C@@H](CC(C)C)C(=O)N[C@H](C(=O)NCC(=O)O)C(C)C` [Example 27, N^ε24-[2-[2-[2-[[2-[2-[2-[[(4S)-4-carboxy-4-(13-carboxytridecanoylamino)butanoyl]amino]ethoxy]ethoxy]acetyl]amino]ethoxy]ethoxy]acetyl], N^ε27-[2-[2-[2-[[2-[2-[2-[[(4S)-4-carboxy-4-(13-carboxytridecanoylamino)butanoyl]amino]ethoxy]ethoxy]acetyl]amino]ethoxy]ethoxy]acetyl]-[Glu^22,Lys^24, Val^25, Arg^26, Lys^27,Gly^34]-GLP-1-(7-34)-peptide] (H-HAEGTFTSDVSSYLEEQK([AEEA-AEEA-γGlu-C14 diacid])VRK([AEEA-AEEA-γGlu-C14 diacid])FIAWLVG-OH), the IC50 (high albumin, 2.0% HSA, read-out: IC50/nM (high HSA)) was over 1000 nM.
